Laboratory results taken from PMC10746112, “Synthesis and Pro-Apoptotic Effects of Nitrovinylanthracenes and Related Compounds in Chronic Lymphocytic Leukaemia (CLL) and Burkitt’s Lymphoma (BL)” (Molecules, 2023).
Like-named read-outs stand apart in the source and are kept apart here.

Legend:
Bjab BL cell line = test: alamarBlue cell viability assay; assay type: cell-based; details: Homo sapiens, 24 h
Procedure: (§1) Cells were seeded at a density of 2.5 × 10^4 cells/well (MCF-7, MDA-MB-231 cells), 1 × 10^4 cells/well (HL-60 cells), 1–5 × 10^4 cells per well (BL MUTU-I, DG-75 cells) and 2 × 10^5 cells/well [HG-3, PGA-1 (CLL cells)], Ramos, BJAB (BL cells) (200 μL per well), in 96-well plates. Cells were treated with the desired drug concentration for the appropriate time for each cell type, and the samples were incubated as required. alamarBlue (20 μL) was then added to each well and the samples further incubated in the dark at 37 °C for 4 h. Wells containing only reagent and cell culture medium in the absence of cells were used as blank controls. Ethanol was used as a vehicle, and cells were treated with 1% ethanol (v/v) in all experiments. The 96-well plates were analysed on a fluorescence plate reader (SpectraMax Gemini, Molecular Devices) (emission and excitement wavelengths of 590 nm and 544 nm, respectively), and the fluorescence was recorded. The decrease in cell viability was then calculated with reference to the vehicle samples (100% viability). EMEM medium with the addition of alamarBlue was used as a blank. Vehicle-treated cells were considered to be 100% viable, and the viabilities of each compound was calculated accordingly. […] All biochemical assays were performed in triplicate on at least three independent occasions, and the mean values were determined.

Ramos BL cell line = test: alamarBlue cell viability assay; assay type: cell-based; details: Homo sapiens, 24 h
Procedure: as §1

DG-75 BL cells = test: Annexin V/PI apoptotic assay (FACS); assay type: cell-based; details: 48 h
Procedure: (§2) The chemotherapeutic drug taxol was used as a positive control. The pro-apoptotic effects of the selected nitrostyrene compounds 11g, 11h, 11i, 11j, 11k and 11l (10 μM) were determined using FITC (fluorescein isothiocyanate), Annexin V/PI (propidium iodide) staining and FACS (fluorescence-activated cell sorting) analysis to characterise the mode of cellular death induced by the synthesised compounds. Four populations were produced in this assay: Annexin-V- and PI-negative (Q4, healthy cells), Annexin-V-positive and PI-negative (Q3, early apoptosis), Annexin-V- and PI-positive (Q2, late apoptosis) and Annexin-V-negative and PI-positive (Q1, necrosis), which were easily identified and quantified. Apoptosis was assessed as % total apoptosis by a combination of early and late apoptosis (Q3 and Q2, respectively). […] The identification of compounds that can induce apoptosis in cancer cells is required in the development of potential lead structures for anticancer drugs.
(§3) The BL cells DG-75 and MUTU-I (750,000) were treated at 37 °C with either vehicle (0.1% (v/v) EtOH), […] taxol (10 μM) and incubated for 24 h (MUTU-1) or 48 h (DG-75). The CLL cells PGA1 and HG3 (1 × 10^6 cells/mL) were treated at 37 °C with either vehicle (1% (v/v) DMSO) or the nitrostyrene compounds 19a (10 μM, 5 μM and 1 μM) and 19g, 19i, 19l and 19m (10 μM and 1 μM) for 48 h. The cells were then harvested by centrifugation at 400× g in a temperature-controlled Sorvall centrifuge and rinsed with 0.5 mL of Ca^2+ Annexin-V-binding buffer (0.1 M HEPES, pH 7.4; 0.14 M NaCl; 25 mM CaCl2). The samples were resuspended in 50 µL FITC Annexin V (diluted 1:33 in Ca^2+ Annexin V-binding buffer), incubated on ice for 10 min (protected from light), washed with Annexin-V-binding buffer and re-suspended in 500 µL of propidium iodide (PI) solution (0.5 µg/mL). The samples were analysed within 1 h using a BD Accuri C6 flow cytometer counting 10,000 cells and analysed using the FlowJo software (FlowJo LLC, Ashland, OR, USA) package.

MUTU-I BL cells = test: Annexin V/PI apoptotic assay (FACS); assay type: cell-based; details: 24 h
Procedure: as §2, §3

[1] = tested on: DG-75 Burkitt’s lymphoma cell line; details: human, 48 h, 1 µM
MUTU-1 cells = tested on: MUTU-1 cells; set-up: method as in earlier work; details: nitrostyrenes and taxol, MTT assay, reported data; cited from earlier work
DG-75 cells = tested on: DG-75 cells; set-up: method as in earlier work; details: nitrostyrenes and taxol, MTT assay, reported data; cited from earlier work
[2] = tested on: MUTU-I Burkitt’s lymphoma cell line; details: read-out: IC50 MUTU-I; previous work; cited from earlier work
[3] = tested on: DG-75 Burkitt’s lymphoma cell line; details: cited from earlier work
[4] = tested on: MUTU-I Burkitt’s lymphoma cell line; test: alamarBlue cell viability assay; details: MUTU-I, 24 h; for viability at 1 µM: read-out: % Viable Cells Remaining MUTU-1, 1 µM, 24 h; for viability at 10 µM: read-out: % Viable Cells Remaining MUTU-1, 10 µM, 24 h
[5] = tested on: DG-75 Burkitt’s lymphoma cell line; test: alamarBlue cell viability assay; details: Homo sapiens, DG-75, 48 h; for viability at 1 µM: read-out: % Viable Cells Remaining DG-75, 1 µM, 48 h; for viability at 10 µM: read-out: % Viable Cells Remaining DG-75, 10 µM, 48 h
[6] = tested on: HeLa cervical cancer cells; test: alamarBlue cell viability assay; details: Homo sapiens, 24 h
[7] = tested on: MCF-7 human breast cancer cells; test: alamarBlue cell viability assay
[8] = tested on: HL-60 promyelocytic leukaemia cells; test: alamarBlue cell viability assay; details: Homo sapiens, HL-60, 24 h
HG-3 CLL cells = test: Annexin V/PI apoptotic assay (FACS); assay type: cell-based; details: 48 h
Procedure: (§4) The pro-apoptotic effects of the selected nitrovinylanthracene compounds 19a, 19g, 19i, 19l and 19m after 48 h were next determined using FITC (fluorescein isothiocyanate), Annexin V/PI (propidium iodide) staining and FACS (fluorescence-activated cell sorting) analysis to characterize the mode of cellular death induced. […] The CLL cells PGA1 and HG3 (1 × 10^6 cells/mL) were treated at 37 °C with either vehicle (1% (v/v) DMSO) or the nitrostyrene compounds 19a (10 μM, 5 μM and 1 μM) and 19g, 19i, 19l and 19m (10 μM and 1 μM) for 48 h. The cells were then harvested by centrifugation at 400× g in a temperature-controlled Sorvall centrifuge and rinsed with 0.5 mL of Ca^2+ Annexin-V-binding buffer (0.1 M HEPES, pH 7.4; 0.14 M NaCl; 25 mM CaCl2). The samples were resuspended in 50 µL FITC Annexin V (diluted 1:33 in Ca^2+ Annexin V-binding buffer), incubated on ice for 10 min (protected from light), washed with Annexin-V-binding buffer and re-suspended in 500 µL of propidium iodide (PI) solution (0.5 µg/mL). The samples were analysed within 1 h using a BD Accuri C6 flow cytometer counting 10,000 cells and analysed using the FlowJo software (FlowJo LLC, Ashland, OR, USA) package.

PGA-1 CLL cells = test: Annexin V/PI apoptotic assay (FACS); assay type: cell-based; details: PGA-1, 10 μM, 48 h
Procedure: as §4

physchem = assay type: physicochemical; details: buffer
Procedure: A preliminary HPLC stability study was performed on a representative nitrovinylanthracene compound 19m (isopropyl) in various biologically relevant pH systems (acidic pH 4 found in the stomach, basic pH 9 found in the intestine and pH 7.4 in the plasma). […] Based on the results of this stability study, the compound 19m was determined to be suitable for further preclinical investigation.

HG-3 CLL cell line = test: alamarBlue cell viability assay; details: for viability at 10 µM: read-out: % Viability HG-3, 10 µM, 24 h; for IC50: read-out: HG-3 IC50, 24 h; for fold greater response (IC50) in HG-3 compared to PGA-1 cells: ratio of IC50 values
PGA-1 CLL cell line = test: alamarBlue cell viability assay; details: 24 h; for viability at 10 µM: read-out: % Viability PGA-1, 10 µM, 24 h
[9] = tested on: MDA-MB-231 human breast cancer cells; test: alamarBlue cell viability assay; assay type: cell-based; details: eight concentrations 0.001–50 μM
[10] = 10 µM, total (early + late) apoptosis
[11] = CLL cell, read-out: PGA-1 IC50, 24 h

In the case of `CC(=O)O[C@H]1C(=O)[C@@]2(C)[C@H]([C@H](OC(=O)c3ccccc3)[C@]3(O)C[C@H](OC(=O)[C@H](O)[C@@H](NC(=O)c4ccccc4)c4ccccc4)C(C)=C1C3(C)C)[C@]1(OC(C)=O)CO[C@@H]1C[C@@H]2O` [Taxol, taxol, reference compound], the viability at 1 µM (Bjab BL cell line; read-out: % Viable Cells Remaining Bjab 24 h 1 µM) is reported as 97.6%, the viability at 10 µM (Bjab BL cell line; read-out: % Viable Cells Remaining Bjab 24 h 10 µM) is reported as 80.2% and the viability at 1 µM (Ramos BL cell line; read-out: % Viable Cells Remaining Ramos 24 h 1 µM) is reported as 69.3%. The viability at 10 µM (Ramos BL cell line; read-out: % Viable Cells Remaining Ramos 24 h 10 µM) was 24.9%, the “DG-75 Apoptosis (%)” value (DG-75 BL cells; 1 µM) was 20.7% and the “DG-75 Apoptosis (%)” value (DG-75 BL cells; [10]) was 72.8%. For the same compound, the “MUTU-I Apoptosis (%)” value (MUTU-I BL cells; 1 µM) was 62.8%, the “MUTU-I Apoptosis (%)” value (MUTU-I BL cells; [10]) was 87.3% and the “MUTU-I Apoptosis (%)” value (MUTU-I BL cells; 10 µM, total (early + late) apoptosis, listed as taxol) was 87%. For the same compound, the “% Viable Cells Remaining DG-75” value [1] was 90.0%, the IC50 (MUTU-1 cells) was 300 nM and the IC50 (DG-75 cells) was 1320 nM. For the same compound, the IC50 [2] was 320 nM, the “% Viable Cells Remaining DG-75 48 h 1 µM” value [3] was over 90% and the IC50 ([3]; read-out: IC50 DG-75, previous work) was 1320 nM. The viability at 1 µM [4] was 32%, the viability at 10 µM [4] was 7% and the viability at 1 µM [5] was over 90%. It also gave a viability at 10 µM [5] of 40%, a viability at 1 µM ([6]; read-out: % Viable Cells Remaining HeLa 24 h 1 µM) of 86.9% and a viability at 10 µM ([6]; read-out: % Viable Cells Remaining HeLa 24 h 10 µM) of 48.4%. The viability at 1 µM ([7]; MCF7, 72 h, read-out: % Viable Cells Remaining MCF-7 72 h 1 µM) was 101%, the viability at 10 µM ([7]; MCF7, 72 h, read-out: % Viable Cells Remaining MCF-7 72 h 10 µM) was 75% and the viability at 1 µM ([8]; read-out: % Viable Cells Remaining HL60 24 h 1 µM) was 97.6%. The viability at 10 µM ([8]; read-out: % Viable Cells Remaining HL60 24 h 10 µM) was 69.7%.

Compound `CC(C)c1c2ccccc2c(/C=C/[N+](=O)[O-])c2ccccc12` [Compound 19m, (E)-9-Isopropyl-10-(2-Nitrovinyl)Anthracene] has a total apoptosis (HG-3 CLL cells; HG-3, 1 μM) of 25%, a total apoptosis (HG-3 CLL cells; HG-3, 10 μM) of 69% and a total apoptosis (PGA-1 CLL cells) of 74%. The half-life (physchem; pH 4) was over 1440 min, the remaining at 24 h (physchem; pH 4) was 55% and the half-life (physchem; pH 7.4) was over 1440 min. The remaining at 24 h (physchem; pH 7.4) was 56%, the half-life (physchem; pH 9) was 1140 min and the remaining at 24 h (physchem; pH 9) was 42%. It also gave a viability at 1 µM [4] of 78.4%, a viability at 10 µM [4] of 0.21% and a viability at 1 µM [5] of 85.2%. For the same compound, the viability at 10 µM [5] was 28.1%, the viability at 1 µM (HG-3 CLL cell line; CLL cell, 24 h, read-out: % Viability HG-3, 1 µM, 24 h) was 82% and the viability at 10 µM (HG-3 CLL cell line; CLL cell, 24 h) was 0.9%. The IC50 (HG-3 CLL cell line; CLL cell, 24 h) was 700 nM, the “fold greater response (IC50) in HG-3 compared to PGA-1 cells” value (HG-3 CLL cell line) was 13 fold and the viability at 10 µM (PGA-1 CLL cell line; CLL cell) was 2.9%. For the same compound, the IC50 (PGA-1 CLL cell line; [11]) was 9100 nM.

Work on `COc1c2ccccc2c(/C=C/[N+](=O)[O-])c2ccccc12` [Compound 19g] yielded an IC50 [9] of 3.78 µM, a total apoptosis (HG-3 CLL cells; HG-3, 1 μM) of 11% and a total apoptosis (HG-3 CLL cells; HG-3, 10 μM) of 54%. It also gave a total apoptosis (PGA-1 CLL cells) of 52%, a viability at 1 µM [4] of 90.1% and a viability at 10 µM [4] of 1.85%. For the same compound, the viability at 1 µM [5] was 89.2%, the viability at 10 µM [5] was 13.8% and the IC50 ([7]; MCF7, read-out: MCF-7 IC50) was 5.31 µM. The viability at 10 µM (HG-3 CLL cell line; CLL cell, 24 h) was 0.5 to 8.3%, the IC50 (HG-3 CLL cell line; CLL cell, 24 h) was 170 nM and the “fold greater response (IC50) in HG-3 compared to PGA-1 cells” value (HG-3 CLL cell line) was 7.8 fold. For the same compound, the viability at 1 µM (PGA-1 CLL cell line; CLL cell, read-out: % Viability PGA-1, 1 µM, 24 h) was 43%, the viability at 10 µM (PGA-1 CLL cell line; CLL cell) was 1.21% and the IC50 (PGA-1 CLL cell line; [11]) was 1300 nM. The IC50 (PGA-1 CLL cell line; read-out: PGA-1 IC50) was 1290 nM.
